Here are results for five compounds from patent publication US20250002471A1 (Gilead Sciences, Inc., priority 2020, published 2025).

Structures are written as SMILES. Like-named read-outs stand apart in the source and are kept apart here.

Assay [1] concerns the target T1, TLR7 (Homo sapiens, UniProt Q9NYK1).
T1 construct: lymphocytes, monocytes and dendritic cells that express TLR7, TLR8 and TLR9; endogenous in cells; host or cells: human PBMCs from healthy donors
T1 sequence (Q9NYK1 27-1049): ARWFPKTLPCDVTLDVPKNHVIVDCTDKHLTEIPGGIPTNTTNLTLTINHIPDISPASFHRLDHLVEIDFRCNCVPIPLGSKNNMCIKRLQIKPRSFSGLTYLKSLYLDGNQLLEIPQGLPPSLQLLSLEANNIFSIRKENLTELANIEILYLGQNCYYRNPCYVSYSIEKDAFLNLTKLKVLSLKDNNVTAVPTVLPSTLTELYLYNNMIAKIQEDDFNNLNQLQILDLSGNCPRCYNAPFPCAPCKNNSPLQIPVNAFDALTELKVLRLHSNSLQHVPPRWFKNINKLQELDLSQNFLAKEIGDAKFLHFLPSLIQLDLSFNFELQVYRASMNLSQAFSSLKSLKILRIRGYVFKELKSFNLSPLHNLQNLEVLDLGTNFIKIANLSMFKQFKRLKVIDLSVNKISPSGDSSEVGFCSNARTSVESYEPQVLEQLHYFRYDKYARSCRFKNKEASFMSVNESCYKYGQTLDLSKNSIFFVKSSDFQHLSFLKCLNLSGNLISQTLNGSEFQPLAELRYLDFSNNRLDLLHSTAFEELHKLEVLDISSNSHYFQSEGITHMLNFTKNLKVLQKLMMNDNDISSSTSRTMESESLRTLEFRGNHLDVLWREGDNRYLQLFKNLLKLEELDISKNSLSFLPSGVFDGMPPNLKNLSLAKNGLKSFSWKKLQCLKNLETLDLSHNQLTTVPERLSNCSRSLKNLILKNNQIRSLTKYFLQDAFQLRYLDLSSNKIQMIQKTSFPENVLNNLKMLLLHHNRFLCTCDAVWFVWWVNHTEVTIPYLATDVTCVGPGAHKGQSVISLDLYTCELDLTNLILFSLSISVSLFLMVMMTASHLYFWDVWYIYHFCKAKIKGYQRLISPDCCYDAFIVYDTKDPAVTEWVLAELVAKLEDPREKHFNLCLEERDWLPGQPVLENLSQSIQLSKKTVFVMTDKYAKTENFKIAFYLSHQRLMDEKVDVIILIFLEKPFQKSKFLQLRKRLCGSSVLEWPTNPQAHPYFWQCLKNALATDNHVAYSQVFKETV
Briefly: Human PBMC cell-based assay, TLR7 agonist GS-986 stimulation, cytokine (IL-6 and IFNα) readout. The following applies: human PBMCs, read-out: TLR-7 EC50. The gist of the method: (§1)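 Readout is IL-6 and IFNα in supernatants, quantified by electrochemiluminescence, with EC50 from a sigmoidal fit of cytokine versus concentration. Healthy-donor human PBMCs, 100,000 per well, got antagonist for 1 h at 37 °C, then 6 h agonist exposure: TLR7 via GS-986 at 400 nM final, TLR9 via ODN-2216 at 3 μM final.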

Assay [2] has as its target cloned hERG potassium channel encoded by the KCNH2 gene (Homo sapiens, UniProt Q12809). Briefly: hERG FASTPatch assay (QPatch patch clamp, HEK293T cells). The format is cell-based. The following applies: HEK293T cells, 1, 3, 10 and 30 uM, room temperature; Table 27. As to the method:
The FASTPatch® Assay (Charles River) was used to examine the in vitro effects of the compounds provided herein on the cloned hERG potassium channel encoded by the KCNH2 gene and stably expressed in HEK293T cells. Vehicle, test and control article formulations were prepared by diluting DMSO stock solutions in HB-PS (HEPES-buffered physiological saline solution) and were delivered to cells via the QPatch robot pipetting system to a final concentration of 0.3% DMSO. Test compound final concentrations of 1, 3, 10 and 30 uM were applied to cells (n >3, where n=the number of cells/concentration) in ascending order in at least three minute intervals separated by solution exchange. The positive control, 50 nM cisparide, was applied in the same manner. Cell membrane currents were recorded at room temperature with up to 48 parallel patch clamp amplifiers in the QPatch HT® or QPatch HTX® system, and only cells with validated whole-cell recordings (seal resistance >200 MQ and leak current <25% channel current) were used. Onset and block of hERG current was measured using a stimulus voltage pattern consisting of a 500 ms prepulse to −40 mV, a 2-second activating pulse to +40 mV, followed by a 2-second test pulse to −40 mV. The pulse pattern was repeated continuously at 10-second intervals from a holding potential of −80 mV. % Block={1-1/[1+([Test]/IC50)^N]}*100% Where [Test] is the concentration of test article, IC50 is the concentration of the test article producing half-maximal inhibition, N is the Hill coefficient and % Block is the percentage of current inhibited at each concentration of the test article. Nonlinear least squares fits will be solved with the Solver add-in for Excel 2000 or later (Microsoft, Redmon, WA). TurboSol analysis for test compound solubility was performed for each concentration tested using a Nephelostar reader measuring light scatter from a 635 nm laser source. Based on validation experiments, light scatter above four times the background level was considered an indication of the presence of particles in suspension.
(In general: Block of hERG is tested as a sign of cardiac risk.)

Assay [3] concerns the target T2, TLR9 (Homo sapiens, UniProt Q9NR96).
T2 construct: lymphocytes, monocytes and dendritic cells that express TLR7, TLR8 and TLR9; endogenous in cells; host or cells: human PBMCs from healthy donors
T2 sequence (Q9NR96 26-1032): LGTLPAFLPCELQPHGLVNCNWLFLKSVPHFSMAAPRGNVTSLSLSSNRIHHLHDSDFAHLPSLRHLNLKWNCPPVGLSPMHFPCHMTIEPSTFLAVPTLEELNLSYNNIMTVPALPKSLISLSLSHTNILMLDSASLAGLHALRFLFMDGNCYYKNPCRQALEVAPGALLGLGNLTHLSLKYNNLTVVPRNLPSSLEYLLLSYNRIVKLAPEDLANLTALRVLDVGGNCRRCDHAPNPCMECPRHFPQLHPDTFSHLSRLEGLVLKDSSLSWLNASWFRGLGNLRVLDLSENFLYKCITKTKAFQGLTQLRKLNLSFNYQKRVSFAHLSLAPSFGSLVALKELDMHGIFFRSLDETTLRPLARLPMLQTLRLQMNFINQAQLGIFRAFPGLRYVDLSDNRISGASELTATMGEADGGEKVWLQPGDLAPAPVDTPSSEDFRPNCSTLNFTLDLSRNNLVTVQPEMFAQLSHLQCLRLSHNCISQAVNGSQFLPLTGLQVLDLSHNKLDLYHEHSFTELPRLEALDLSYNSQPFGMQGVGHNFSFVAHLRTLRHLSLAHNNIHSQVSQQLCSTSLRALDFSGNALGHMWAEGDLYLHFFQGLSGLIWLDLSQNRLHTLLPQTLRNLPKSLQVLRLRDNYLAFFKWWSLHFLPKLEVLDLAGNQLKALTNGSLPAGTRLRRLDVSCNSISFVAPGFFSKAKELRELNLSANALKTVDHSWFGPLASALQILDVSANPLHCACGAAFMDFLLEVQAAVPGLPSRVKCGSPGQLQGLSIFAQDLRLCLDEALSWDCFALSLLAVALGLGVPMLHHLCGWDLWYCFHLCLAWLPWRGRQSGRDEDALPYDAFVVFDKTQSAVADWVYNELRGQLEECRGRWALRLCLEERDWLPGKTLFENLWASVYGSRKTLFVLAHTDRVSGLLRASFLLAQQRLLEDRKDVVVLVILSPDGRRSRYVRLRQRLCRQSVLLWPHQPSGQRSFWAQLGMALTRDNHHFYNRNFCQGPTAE
As to the kind of experiment: Human PBMC cell-based assay, TLR9 agonist ODN-2216 stimulation, cytokine (IL-6 and IFNα) readout. Conditions: human PBMCs, read-out: TLR-9 EC50. The gist of the method: as §1

Setting [4] is: GS-986 400 nM, 6 hours, Table 26.
Where [5] appears, read: ODN-2216 3 μM, 6 hours, Table 26.

cloned hERG potassium channel encoded by the KCNH2 gene, sequence (Q12809 whole entry): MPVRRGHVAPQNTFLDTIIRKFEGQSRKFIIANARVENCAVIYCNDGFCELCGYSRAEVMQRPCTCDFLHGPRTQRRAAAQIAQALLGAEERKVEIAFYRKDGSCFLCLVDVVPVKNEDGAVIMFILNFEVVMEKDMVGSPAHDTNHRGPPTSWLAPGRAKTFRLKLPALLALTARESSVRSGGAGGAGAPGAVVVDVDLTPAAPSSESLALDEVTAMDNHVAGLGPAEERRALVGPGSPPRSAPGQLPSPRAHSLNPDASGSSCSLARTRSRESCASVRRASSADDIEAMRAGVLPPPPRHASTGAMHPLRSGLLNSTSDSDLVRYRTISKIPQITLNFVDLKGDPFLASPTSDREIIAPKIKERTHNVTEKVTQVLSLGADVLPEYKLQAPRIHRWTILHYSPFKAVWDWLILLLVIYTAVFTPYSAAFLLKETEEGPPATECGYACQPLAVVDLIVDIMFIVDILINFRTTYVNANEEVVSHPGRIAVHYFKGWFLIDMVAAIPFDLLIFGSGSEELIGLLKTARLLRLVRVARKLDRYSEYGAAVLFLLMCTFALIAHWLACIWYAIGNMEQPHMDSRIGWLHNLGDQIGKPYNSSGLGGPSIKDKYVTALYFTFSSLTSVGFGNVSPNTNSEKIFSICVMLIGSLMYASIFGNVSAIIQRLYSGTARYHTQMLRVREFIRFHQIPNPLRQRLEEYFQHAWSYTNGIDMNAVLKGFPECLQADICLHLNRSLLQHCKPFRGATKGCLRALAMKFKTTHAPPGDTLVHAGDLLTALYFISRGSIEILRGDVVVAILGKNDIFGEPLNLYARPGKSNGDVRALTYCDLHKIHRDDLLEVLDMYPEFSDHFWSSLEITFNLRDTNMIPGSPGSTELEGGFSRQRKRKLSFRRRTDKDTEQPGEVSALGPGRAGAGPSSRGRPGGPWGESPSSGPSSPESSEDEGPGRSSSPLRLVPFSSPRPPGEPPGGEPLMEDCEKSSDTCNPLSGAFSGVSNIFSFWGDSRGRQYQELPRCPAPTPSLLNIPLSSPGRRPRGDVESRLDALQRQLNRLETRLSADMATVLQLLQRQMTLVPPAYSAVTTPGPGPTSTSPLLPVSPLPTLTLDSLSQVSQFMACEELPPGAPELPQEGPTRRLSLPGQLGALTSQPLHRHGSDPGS

`Cc1cc(-c2[nH]c3ccc(-c4ccnc(N5CCNCC5)c4)cc3c2C(C)C)cc(C)n1` [Example B, reference compound]: the EC50 (as a rule, the concentration at which the effect is half-maximal) turned out to be 7.8 nM in assay [1] (Table 27 comparison) and 285 nM in assay [3] (Table 27 comparison). In addition, the 50% inhibitory concentration (IC50) – broadly, the midpoint of a concentration-inhibition curve – in assay [2] stood at 2100 nM.
Consider `Cc1cc(-c2[nH]c3cc(-c4ccnc(N5CCNCC5)c4)ccc3c2C)cc(C)n1` [Example 64], for which the concentration giving a half-maximal response (EC50) in assay [1] (setting [4]) came to 315 nM; in assay [3] (setting [5]) it was 136 nM. The compound also yielded an IC50 in assay [2] of 20300 nM.
Consider `Cc1cc(-c2[nH]c3cc(-c4ccc(N5CCC(C)(N)CC5)nc4)ccc3c2C)cc(C)n1` [Example 23], for which the concentration giving a half-maximal response (EC50) stood at 16.8 nM in assay [1] (setting [4]) and 29 nM in assay [3] (setting [5]). In assay [2], this compound had an IC50 of 18500 nM.
`Cc1cc(-c2[nH]c3ccc(C4CCCNC4)cc3c2C(C)C)cc(C)n1` (stereo not drawn) [Example C, reference compound]: the EC50 in assay [1] (Table 27 comparison) was 2.3 nM; in assay [3] (Table 27 comparison) it was 583 nM. This compound showed a half-maximal inhibitory concentration (IC50) in assay [2] of 11000 nM.
With `Cc1cc(-c2[nH]c3ccc(-c4ccc(N5CCC(C)(N)CC5)nc4)cc3c2C(C)C)cc(C)n1` [Example D, reference compound], the figures for the EC50 in assay [1] (Table 27 comparison) and in assay [3] (Table 27 comparison) were 12 nM and 249 nM, respectively. The compound also registered an IC50 in assay [2] of 7800 nM.
